Test results from patent publication US10105357B2, “Indication of antibiotic drugs for preparation of cancer inhibition pharmaceutical composition” (LAUNX BIOMEDICAL CO., LTD., priority 2014, dated 2018).
Like-named read-outs stand apart in the source and are kept apart here.

Legend:
[1] = system: HI650 (Lung Adenocarcinoma); test: Cell viability analysis, lung cancer HI650; assay type: cell-based, human; conditions: Homo sapiens
[2] = system: HCT116 (p53+) (Colorectal Carcinoma); test: cells; conditions: Homo sapiens, HCT-116, 72 h, read-out: cell viability (survival rate), HCT116
[3] = system: HL-60 (Acute Promyelocytic Leukemia); test: Cell viability analysis, leukemia HL-60; assay type: cell-based, human; conditions: Homo sapiens
[4] = system: PC3 (p53−) (Prostate Adenocarcinoma); test: Cell viability analysis, prostate cancer PC3; assay type: cell-based, human; conditions: Homo sapiens
[5] = system: TSGH-8301 (Urinary Bladder Carcinoma); test: Cell viability analysis, bladder cancer TSGH-8301; assay type: cell-based, human; conditions: Homo sapiens
[6] = system: MCF7 (Mammary Gland, Adenocarcinoma); test: Cell viability analysis, breast cancer MCF7; assay type: cell-based, human; conditions: Homo sapiens
[7] = system: MKN-45 (Gastric Adenocarcinoma); test: Cell viability analysis, gastric cancer MKN-45; assay type: cell-based, human; conditions: Homo sapiens, drug 10 μM, 72 hours, WST-1, OD450 nm, read-out: cell viability (survival rate), MKN-45
[8] = system: AGS (Gastric Adenocarcinoma); test: Cell viability analysis, gastric cancer AGS; assay type: cell-based, human; conditions: Homo sapiens
[9] = system: A375 (Amelanotic Melanoma); test: Cell viability analysis, skin cancer A375; assay type: cell-based, human; conditions: Homo sapiens
[10] = system: HeLa (Cervix Adenocarcinoma); test: Cell viability analysis, cervical cancer HeLa; assay type: cell-based, human; conditions: Homo sapiens, HeLa
[11] = system: A549 (Lung Adenocarcinoma); test: Cell viability analysis, lung cancer A549; assay type: cell-based, human; conditions: Homo sapiens
[12] = system: HepG2 (Hepatocellular Carcinoma); test: Cell viability analysis, hepatic cancer HepG2; assay type: cell-based, human; conditions: Homo sapiens
[13] = system: LoVo (Colorectal Adenocarcinoma); test: Cell viability analysis, colon cancer LoVo; assay type: cell-based, human; conditions: Homo sapiens, LoVo
[14] = 72 h, read-out: cell viability (survival rate), LoVo, drug 10 μM, 72 hours, WST-1, OD450 nm
[15] = NCI-H1650, drug 10 μM, 72 hours, WST-1, OD450 nm, read-out: cell viability (survival rate), H1650
[16] = HL-60, drug 10 μM, 72 hours, WST-1, OD450 nm, read-out: cell viability (survival rate), HL-60
[17] = drug 10 μM, 72 hours, WST-1, OD450 nm, read-out: cell viability (survival rate), PC3
[18] = drug 10 μM, 72 hours, WST-1, OD450 nm, read-out: cell viability (survival rate), TSGH
[19] = MCF7, drug 10 μM, 72 hours, WST-1, OD450 nm, read-out: cell viability (survival rate), MCF7
[20] = drug 10 μM, 72 hours, WST-1, OD450 nm, read-out: cell viability (survival rate), AGS
[21] = A-375, drug 10 μM, 72 hours, WST-1, OD450 nm, read-out: cell viability (survival rate), A375
[22] = drug 10 μM, 72 hours, WST-1, OD450 nm, read-out: cell viability (survival rate), HeLa
[23] = A549, drug 10 μM, 72 hours, WST-1, OD450 nm, read-out: cell viability (survival rate), A549
[24] = HepG2, drug 10 μM, 72 hours, WST-1, OD450 nm, read-out: cell viability (survival rate), HepG2
[25] = drug 10 μM, 72 hours, WST-1, OD450 nm, read-out: cell viability (survival rate), LoVo

Compound: OC[C@H]1O[C@H](O[C@]2(CCl)O[C@H](CCl)[C@@H](O)[C@@H]2O)[C@H](O)[C@@H](O)[C@H]1Cl [Sucralose]
- viability at 10 µM ([1]; NCI-H1650, 72 h, drug 10 μM, 72 hours, WST-1, OD450 nm, read-out: cell viability (survival rate), H1650): 72%
- viability at 10 µM [2]: 54.8%
- viability at 10 µM ([3]; HL-60, 72 h, drug 10 μM, 72 hours, WST-1, OD450 nm, read-out: cell viability (survival rate), HL-60): 88.5%
- viability at 10 µM ([4]; 72 h, drug 10 μM, 72 hours, WST-1, OD450 nm, read-out: cell viability (survival rate), PC3): 78.8%
- viability at 10 µM ([5]; 72 h, drug 10 μM, 72 hours, WST-1, OD450 nm, read-out: cell viability (survival rate), TSGH): 94.3%
- viability at 10 µM ([6]; MCF7, 72 h, drug 10 μM, 72 hours, WST-1, OD450 nm, read-out: cell viability (survival rate), MCF7): 71.2%
- viability at 10 µM ([7]; MKN-45, 72 h): 94.1%
- viability at 10 µM ([8]; 72 h, drug 10 μM, 72 hours, WST-1, OD450 nm, read-out: cell viability (survival rate), AGS): 66.7%
- viability at 10 µM ([9]; A-375, 72 h, drug 10 μM, 72 hours, WST-1, OD450 nm, read-out: cell viability (survival rate), A375): 83.3%
- viability at 10 µM ([10]; 72 h, drug 10 μM, 72 hours, WST-1, OD450 nm, read-out: cell viability (survival rate), HeLa): 77.9%
- viability at 10 µM ([11]; A549, 72 h, drug 10 μM, 72 hours, WST-1, OD450 nm, read-out: cell viability (survival rate), A549): 74.3%
- viability at 10 µM ([12]; HepG2, 72 h, drug 10 μM, 72 hours, WST-1, OD450 nm, read-out: cell viability (survival rate), HepG2): 95.3%
- viability at 10 µM [13, 14]: 73.8%

Compound: CCC1(C)CC(=O)NC(=O)C1 [Bemegride]
- viability at 10 µM [1, 15]: 69.9%
- viability at 10 µM [2]: 47.7%
- viability at 10 µM [3, 16]: 125%
- viability at 10 µM [4, 17]: 113%
- viability at 10 µM [5, 18]: 93.3%
- viability at 10 µM [6, 19]: 123%
- viability at 10 µM ([7]; MKN-45): 99.7%
- viability at 10 µM [8, 20]: 62%
- viability at 10 µM [9, 21]: 62.7%
- viability at 10 µM [10, 22]: 62.7%
- viability at 10 µM [11, 23]: 60.2%
- viability at 10 µM [12, 24]: 90.7%
- viability at 10 µM [13, 25]: 88.5%

Compound: O=c1cc[nH]c(=O)[nH]1 [Uracil]
- viability at 10 µM ([1]; NCI-H1650, 72 h, read-out: cell viability (survival rate), H1650, drug 10 μM, 72 hours, WST-1, OD450 nm): 91.8%
- viability at 10 µM [2]: 94.3%
- viability at 10 µM ([3]; HL-60, 72 h, read-out: cell viability (survival rate), HL-60, drug 10 μM, 72 hours, WST-1, OD450 nm): 98.7%
- viability at 10 µM ([4]; 72 h, read-out: cell viability (survival rate), PC3, drug 10 μM, 72 hours, WST-1, OD450 nm): 163%
- viability at 10 µM ([5]; 72 h, read-out: cell viability (survival rate), TSGH, drug 10 μM, 72 hours, WST-1, OD450 nm): 104%
- viability at 10 µM ([6]; MCF7, 72 h, read-out: cell viability (survival rate), MCF7, drug 10 μM, 72 hours, WST-1, OD450 nm): 103%
- viability at 10 µM ([8]; 72 h, read-out: cell viability (survival rate), AGS, drug 10 μM, 72 hours, WST-1, OD450 nm): 82.9%
- viability at 10 µM ([9]; A-375, 72 h, read-out: cell viability (survival rate), A375, drug 10 μM, 72 hours, WST-1, OD450 nm): 98.2%
- viability at 10 µM ([10]; 72 h, read-out: cell viability (survival rate), HeLa, drug 10 μM, 72 hours, WST-1, OD450 nm): 107%
- viability at 10 µM ([11]; A549, 72 h, read-out: cell viability (survival rate), A549, drug 10 μM, 72 hours, WST-1, OD450 nm): 80.5%
- viability at 10 µM ([12]; HepG2, 72 h, read-out: cell viability (survival rate), HepG2, drug 10 μM, 72 hours, WST-1, OD450 nm): 100%
- viability at 10 µM [13, 14]: 70.2%

Compound: CNC[C@H](O)[C@@H](O)[C@H](O)[C@H](O)CO [Meglumine]
- viability at 10 µM [1, 15]: 62%
- viability at 10 µM [2]: 92.7%
- viability at 10 µM [3, 16]: 114%
- viability at 10 µM [4, 17]: 76.8%
- viability at 10 µM [5, 18]: 109%
- viability at 10 µM [6, 19]: 97%
- viability at 10 µM [8, 20]: 95%
- viability at 10 µM [9, 21]: 78.2%
- viability at 10 µM [10, 22]: 74.1%
- viability at 10 µM [11, 23]: 108%
- viability at 10 µM [12, 24]: 90.8%
- viability at 10 µM [13, 25]: 78.4%

Compound: Cc1cc(O)ccc1Cl [Chlorocresol]
- viability at 10 µM ([1]; NCI-H1650, 72 h, read-out: cell viability (survival rate), H1650): 91.5%
- viability at 10 µM [2]: 61.7%
- viability at 10 µM ([3]; HL-60, 72 h, read-out: cell viability (survival rate), HL-60): 96.4%
- viability at 10 µM ([4]; 72 h, read-out: cell viability (survival rate), PC3): 130%
- viability at 10 µM ([5]; 72 h, read-out: cell viability (survival rate), TSGH): 113%
- viability at 10 µM ([6]; MCF7, 72 h, read-out: cell viability (survival rate), MCF7): 64.2%
- viability at 10 µM ([8]; 72 h, read-out: cell viability (survival rate), AGS): 103%
- viability at 10 µM ([9]; A-375, 72 h, read-out: cell viability (survival rate), A375): 65.4%
- viability at 10 µM ([10]; 72 h, read-out: cell viability (survival rate), HeLa): 96.3%
- viability at 10 µM ([11]; A549, 72 h, read-out: cell viability (survival rate), A549): 80.1%
- viability at 10 µM ([12]; HepG2, 72 h, read-out: cell viability (survival rate), HepG2): 98.6%
- viability at 10 µM ([13]; 72 h, read-out: cell viability (survival rate), LoVo): 62%
